Test results from ChEMBL document CHEMBL1148653, “Synthesis, structural reassignment, and biological activity of type B MAO inhibitors based on the 5H-indeno[1,2-c]pyridazin-5-one core” (J Med Chem, 2006).

Columns and labels:
[1] = biological target: T1, Amine oxidase [flavin-containing] A (Homo sapiens, UniProt P21397); experiment: Inhibition of MAO-A in human placental mitochondria at 5 uM; parameters: species or system Placenta
T1 sequence (P21397 whole entry): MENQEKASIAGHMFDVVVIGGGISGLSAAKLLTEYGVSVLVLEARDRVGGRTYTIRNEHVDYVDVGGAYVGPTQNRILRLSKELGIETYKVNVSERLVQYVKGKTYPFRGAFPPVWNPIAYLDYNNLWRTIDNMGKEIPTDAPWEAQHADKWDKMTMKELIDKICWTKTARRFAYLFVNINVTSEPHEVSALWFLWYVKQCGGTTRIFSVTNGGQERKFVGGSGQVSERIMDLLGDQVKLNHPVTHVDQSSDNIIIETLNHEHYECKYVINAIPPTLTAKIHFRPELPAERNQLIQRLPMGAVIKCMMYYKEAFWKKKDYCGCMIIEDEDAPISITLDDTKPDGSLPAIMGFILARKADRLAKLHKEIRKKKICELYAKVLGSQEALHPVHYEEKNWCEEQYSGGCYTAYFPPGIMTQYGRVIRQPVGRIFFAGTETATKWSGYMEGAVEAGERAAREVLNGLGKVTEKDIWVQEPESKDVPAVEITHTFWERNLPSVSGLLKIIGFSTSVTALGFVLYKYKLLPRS

[2] = biological target: T2, Amine oxidase [flavin-containing] B (Rattus norvegicus, UniProt P19643); experiment: Inhibition of MAO-B in rat brain mitochondria
T2 sequence (P19643 whole entry): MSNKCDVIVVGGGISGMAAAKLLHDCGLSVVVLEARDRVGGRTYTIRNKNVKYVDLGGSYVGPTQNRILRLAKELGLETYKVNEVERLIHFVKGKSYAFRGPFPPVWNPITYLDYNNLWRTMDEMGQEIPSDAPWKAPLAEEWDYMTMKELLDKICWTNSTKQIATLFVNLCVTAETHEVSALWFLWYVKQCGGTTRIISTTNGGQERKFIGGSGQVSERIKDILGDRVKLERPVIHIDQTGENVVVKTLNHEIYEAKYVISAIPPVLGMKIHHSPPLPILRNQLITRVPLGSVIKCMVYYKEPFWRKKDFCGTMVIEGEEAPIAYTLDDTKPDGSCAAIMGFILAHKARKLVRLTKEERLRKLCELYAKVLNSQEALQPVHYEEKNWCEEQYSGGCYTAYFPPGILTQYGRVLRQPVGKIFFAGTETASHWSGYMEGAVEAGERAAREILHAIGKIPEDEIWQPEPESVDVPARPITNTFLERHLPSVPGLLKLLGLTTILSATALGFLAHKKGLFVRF

[3] = biological target: T3, Amine oxidase [flavin-containing] A (Rattus norvegicus, UniProt P21396); experiment: Inhibition of MAO-A in rat brain mitochondria
T3 sequence (P21396 whole entry): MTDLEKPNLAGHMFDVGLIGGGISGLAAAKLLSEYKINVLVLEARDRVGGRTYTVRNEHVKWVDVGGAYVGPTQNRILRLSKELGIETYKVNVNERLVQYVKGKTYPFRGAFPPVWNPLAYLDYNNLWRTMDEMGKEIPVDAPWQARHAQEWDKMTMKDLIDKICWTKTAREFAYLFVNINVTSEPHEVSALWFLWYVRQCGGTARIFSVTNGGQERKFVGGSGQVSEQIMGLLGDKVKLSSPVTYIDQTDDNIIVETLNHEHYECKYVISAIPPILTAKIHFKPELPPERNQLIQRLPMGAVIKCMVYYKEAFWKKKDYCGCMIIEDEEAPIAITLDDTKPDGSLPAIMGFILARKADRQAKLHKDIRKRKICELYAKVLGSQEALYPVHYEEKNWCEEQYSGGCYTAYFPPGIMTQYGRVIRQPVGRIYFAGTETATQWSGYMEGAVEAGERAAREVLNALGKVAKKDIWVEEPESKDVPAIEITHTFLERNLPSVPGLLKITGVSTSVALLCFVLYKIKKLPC

SMILES: COc1ccc2c(c1)C(=O)c1cc(-c3cccc(C(F)(F)F)c3)nnc1-2
- Inhibition [1]: Not Active

SMILES: Cc1cc2c(nn1)-c1cc(OCc3ccccc3)ccc1C2=O
- IC50 [2]: 170 nM
- IC50 [3]: > 1000 nM

SMILES: COc1ccc2c(c1)-c1nnc(C)cc1C2=O
- IC50 [2]: > 1000 nM
- IC50 [3]: > 1000 nM

SMILES: COc1ccc2c(c1)-c1nnc(-c3cccc(C(F)(F)F)c3)cc1C2=O
- Inhibition [1]: Not Active
